Source: patent publication US10676468B2, “N-(3-heteroarylaryl)-4-arylarylcarboxamides and analogs as hedgehog pathway inhibitors and use thereof” (IMPACT Therapeutics, Inc., priority 2012, dated 2020)

Columns and labels:
[1] = tested on: Hedgehog Signaling Pathway; assay: SAG-induced differentiation of C3H10T1/2 cells into osteoblastic cells, intracellular alkaline phosphatase activity; format: cell-based, mouse; details: Mus musculus, C3H 10T1/2, 120 h, 1 μM SAG, 5 days, alkaline phosphatase activity (OD405), read-out: IC50 values of compounds that inhibit Hh pathway
Excerpt: (§1) The Application of SAG to Induce Pluripotent Mesenchymal Mouse Embryonic Cell C3H/10T1/2 to Differentiate into Osteoblastic Cells for the Determination of the Inhibitory Activity of N-(3-(1H-benzo[d]imidazol-2-yl)-4-chlorophenyl)-2-methyl-4-((2S,6R)-2,6-dimethylmorpholino)benzamide and Analogs on Hedgehog Signaling Pathway
The intracellular alkaline phosphatase activity is a reliable indication of the differentiation process. Therefore this enzymatic activity can be used to monitor the activity of hedgehog pathway inhibitors.
The C3H10T1/2 cells were grown in DMEM medium supplemented with 10% fetal bovine serum (FBS, Hyclone) at 37° C. with 5% CO2. 10000 cells were sown to each well of a 96-well microplate a day before the experiment and grown overnight. At the day of experiment, the inducing medium and inhibitor solutions were prepared as follows: the reference compound and testing compounds were serially diluted 1 to 3 and 1 to 10 in DMSO to seven concentrations with the eighth concentration being DMSO. A 10-fold dilution was prepared by mixing 10 μL of the DMSO dilution with 90 μL of fresh growing medium. […] Pre-sown cells were taken out from incubator and the medium was removed. To each well, 180 μL inducing medium was added and followed immediately with 20 μL of testing or reference compound dilutions. The testing compound concentrations are between 10 μM and 1 nM. The cells were then return to CO2 incubator to grow additional 5 days at 37° C.
(§2) After incubating for 5 days, the cells were taken out and intracellular alkaline phosphatase activity was tested. The alkaline phosphatase activity was measured as follows:
1) Preparation of Substrate Solution:
(§3) Solution A: A 0.5 mM MgCl2 (Sigma Prod. No. M-0250) solution was prepared.
(§4) After the pH value was adjusted to 9.8 with 5 M HCl at 37° C., the total volume was adjusted to 100 mL.
(§5) After it is completely dissolved the total volume was adjusted to 10 mL with the final concentration being 1 mM.
Substrate reaction medium: To 10 mL of solution B, 250 μL of solution A and 200 μL of solution C were added, and mixed well.
2) the Measurement of Intracellular Alkaline Phosphatase Activity:
(§6) After taking out the cells from the incubator, the cell culture medium was removed and cells were washed twice with PBS. 20 μL of lysis solution (0.2% Triton solution) was added to each well. After being shaken for 30 min at room temperature, each well of cells received 80 μL of substrate reaction medium. The microplate was placed immediately into a VariSkan Flashplate reader and absorbance at OD405 was read as background reading. The plate was replaced back to cell culture incubator at 37° C. for additional 30 min and the absorbance was read again using VariSkan Flash plate reader at OD405.
(§7) The data were analyzed by subtracting the background reading from the reading at 30 min, and the obtained numbers were plotted and analyzed with Prism 5 software (GraphPad). The phosphatase activity (calculated OD405) was plotted against the log concentration of testing compound, and the obtained plot was fitted with non-linear curve fitting equation to calculate IC50 values. The curve fitting equation is Y=Bottom+(Top−Bottom)/(1+10^((X−Log IC50))). X is the logarithm of concentration. Y is the measure of alkaline phosphatase activity (OD405).
(§8) The calculated IC50 value is a measurement of the inhibitory activity of compound to Hh pathway.

[2] = tested on: Hedgehog Signaling Pathway; assay: SHH-induced differentiation of C3H10T1/2 cells into osteoblastic cells, intracellular alkaline phosphatase activity; format: cell-based, mouse; details: Mus musculus, C3H 10T1/2, 120 h, 10 nM SHH-N, 5 days, alkaline phosphatase activity (OD405), read-out: IC50 values of compounds that inhibit Hh pathway
Protocol: as §1, with “SHH” for “SAG”, “C3H10T1/2” for “C3H/10T1/2”
The C3H10T1/2 cells were grown in DMEM medium supplemented with 10% fetal bovine serum (FBS, Hyclone) at 37° C. with 5% CO2. 10000 cells were sown to each well of a 96-well microplate a day before the experiment and grown overnight. […] The reference compound and testing compounds were serially diluted 1 to 3 and 1 to 10 in DMSO to seven concentrations with the eighth concentration being DMSO. A 10-fold dilution was prepared by mixing 10 μL of the DMSO dilutions with 90 μL of fresh growing medium. Pre-sown cells were taken out from incubator and the medium was removed. To each well, 180 μL of inducing medium containing 10 nM of SHH-N was added and followed immediately with 20 μL of 10× testing or reference compound dilutions. The testing compound concentrations are between 10 μM and 10 nM. The cells were then returned to CO2 incubator to grow additional 5 days at 37° C.
as §2
3) Preparation of Substrate Solution:
as §3, §4, §5
Substrate reaction medium: to 10 mL of solution B, 250 μL of solution A and 200 μL of solution C were added, and mixed well.
4) The Measurement of Intracellular Alkaline Phosphatase Activity:
as §6
as §7, with “Y=Bottom+(Top−Bottom)/(1+10^(X−Log IC50)).” for “Y=Bottom+(Top−Bottom)/(1+10^((X−Log IC50))).”
as §8

IC50 [1] [nM]	IC50 [2] [nM]	Structure (SMILES)
> 10000	> 10000	O=C(Nc1ccc(Cl)c(-c2nc3ccccc3[nH]2)c1)c1ccc(-c2ccc(C(F)(F)F)cc2)cc1O [Example 16, N-(3-(1H-benzo[d]imidazol-2-yl)-4-chlorophenyl)-3-hydroxy-4′-(trifluoromethyl)biphenyl-4-carboxamide]
81	15	O=C(Nc1ccc(Cl)c(-c2nc3ccccc3[nH]2)c1)c1ccc(-c2ccc(C(F)(F)F)cc2)cc1F [Example 17, N-(3-(1H-benzo[d]imidazol-2-yl)-4-chlorophenyl)-3-fluoro-4′-(trifluoromethyl)biphenyl-4-carboxamide]
161	23	O=C(Nc1ccc(Cl)c(-c2nc3ccccc3[nH]2)c1)c1ccc(-c2ccc(C(F)(F)F)cc2)cc1[N+](=O)[O-] [Example 19, N-(3-(1H-benzo[d]imidazol-2-yl)-4-chlorophenyl)-3-nitro-4′-(trifluoromethyl)biphenyl-4-carboxamide]
> 10000	59	Cc1cc(-c2ccc(C(F)(F)F)cc2)cc(C)c1C(=O)Nc1ccc(Cl)c(-c2nc3ccccc3[nH]2)c1 [Example 20, N-(3-(1H-benzo[d]imidazol-2-yl)-4-chlorophenyl)-3,5-dimethyl-4′-(trifluoromethyl)biphenyl-4-carboxamide]
163	24	O=C(Nc1ccc(Cl)c(-c2nc3ccccc3[nH]2)c1)c1ccc(-c2ccccc2)cc1 [Example 23, N-(3-(1H-benzo[d]imidazol-2-yl)-4-chlorophenyl) biphenyl-4-carboxamide]
255	62	Cc1cc(-c2ccc(N)cc2)ccc1C(=O)Nc1ccc(Cl)c(-c2nc3ccccc3[nH]2)c1 [Example 24, N-(3-(1H-benzo[d]imidazol-2-yl)-4-chlorophenyl)-3-methyl-4′-aminobiphenyl-4-carboxamide]
> 10000	> 10000	O=c1[nH]c2cc(-c3ccc(C(F)(F)F)cc3)ccc2c(=O)n1-c1ccc(Cl)c(-c2nc3ccccc3[nH]2)c1 [Example 26, 3-(3-(1H-benzo[d]imidazol-2-yl)-4-chlorophenyl)-7-(4-(trifluoromethyl)phenyl)quinazoline-2,4(1H,3H)-dione]
151	57	O=c1c2ccc(-c3ccc(C(F)(F)F)cc3)cc2ncn1-c1ccc(Cl)c(-c2nc3ccccc3[nH]2)c1 [Example 27, 3-(3-(1H-benzo[d]imidazol-2-yl)-4-chlorophenyl)-7-(4-(trifluoromethyl)phenyl)quinazolin-4(3H)-one]
228	59	O=C1c2ccc(-c3ccc(C(F)(F)F)cc3)cc2OCN1c1ccc(Cl)c(-c2nc3ccccc3[nH]2)c1 [Example 28, 3-(3-(1H-benzo[d]imidazol-2-yl)-4-chlorophenyl)-7-(4-(trifluoromethyl)phenyl)-2H-benzo[e][1,3]oxazin-4(3H)-one]
> 10000	72	O=C1c2ccc(-c3ccccc3)cc2CCN1c1ccc(Cl)c(-c2nc3ccccc3[nH]2)c1 [Example 29, 2-(3-(1H-benzo[d]imidazol-2-yl)-4-chlorophenyl)-6-phenyl-3,4-dihydroisoquinolin-1(2H)-one]
88	31	Cc1cc(N2CCOCC2)ccc1C(=O)Nc1ccc(Cl)c(-c2nc3ccccc3[nH]2)c1 [Example 30, N-(3-(1H-benzo[d]imidazol-2-yl)-4-chlorophenyl)-2-methyl-4-morpholinobenzamide]

Continued, molecule first:

Structure (SMILES)	IC50 [1] [nM]	IC50 [2] [nM]
Cc1cc(-c2ccccc2)ccc1C(=O)Nc1ccc(Cl)c(-c2nc3ccccc3[nH]2)c1 [Example 2, N-(3-(1H-benzo[d]imidazol-2-yl)-4-chlorophenyl)-3-methylbiphenyl-4-carboxamide]	74	14
COc1ccc(-c2ccc(C(=O)Nc3ccc(Cl)c(-c4nc5ccccc5[nH]4)c3)c(C)c2)cc1 [Example 3, N-(3-(1H-benzo[d]imidazol-2-yl)-4-chlorophenyl)-3-methyl-4′-methoxybiphenyl-4-carboxamide]	111	39
Cc1cc(-c2ccc(F)cc2)ccc1C(=O)Nc1ccc(Cl)c(-c2nc3ccccc3[nH]2)c1 [Example 4, N-(3-(1H-benzo[d]imidazol-2-yl)-4-chlorophenyl)-3-methyl-4′-fluorobiphenyl-4-carboxamide]	86	7.8
Cc1cc(-c2ccc(S(C)(=O)=O)cc2)ccc1C(=O)Nc1ccc(Cl)c(-c2nc3ccccc3[nH]2)c1 [Example 5, N-(3-(1H-benzo[d]imidazol-2-yl)-4-chlorophenyl)-3-methyl-4′-(methylsulfonyl)biphenyl-4-carboxamide]	26	5.9
CC(=O)c1ccc(-c2ccc(C(=O)Nc3ccc(Cl)c(-c4nc5ccccc5[nH]4)c3)c(C)c2)cc1 [Example 9, N-(3-(1H-benzo[d]imidazol-2-yl)-4-chlorophenyl)-3-methyl-4′-acetylbiphenyl-4-carboxamide]	156	43
Cc1cc(-c2cccc(F)c2)ccc1C(=O)Nc1ccc(Cl)c(-c2nc3ccccc3[nH]2)c1 [Example 10, N-(3-(1H-benzo[d]imidazol-2-yl)-4-chlorophenyl)-3-methyl-3′-fluorobiphenyl-4-carboxamide]	74	6.3
Cc1cc(-c2cccc(C#N)c2)ccc1C(=O)Nc1ccc(Cl)c(-c2nc3ccccc3[nH]2)c1 [Example 11, N-(3-(1H-benzo[d]imidazol-2-yl)-4-chlorophenyl)-3-methyl-3′-cyanobiphenyl-4-carboxamide]	31	1.7
O=C(Nc1ccc(Cl)c(-c2nc3ccccc3[nH]2)c1)c1ccc(-c2ccc(F)cc2)cc1 [Example 12, N-(3-(1H-benzo[d]imidazol-2-yl)-4-chlorophenyl)-4′-fluorobiphenyl-4-carboxamide]	153	18
O=C(Nc1ccc(Cl)c(-c2nc3ccccc3[nH]2)c1)c1ccc(-c2cccc(F)c2)cc1 [Example 13, N-(3-(1H-benzo[d]imidazol-2-yl)-4-chlorophenyl)-3′-fluorobiphenyl-4-carboxamide]	86	14.6
COc1cc(-c2ccc(C(F)(F)F)cc2)ccc1C(=O)Nc1ccc(Cl)c(-c2nc3ccccc3[nH]2)c1 [Example 15, N-(3-(1H-benzo[d]imidazol-2-yl)-4-chlorophenyl)-3-methoxy-4′-(trifluoromethyl)biphenyl-4-carboxamide]	> 10000	40
